Source: patent publication EP1082127B1 (WARNER-LAMBERT COMPANY LLC, priority 1998, dated 1999)

Key:
ICE [1] = target: T1, ICE (Homo sapiens, UniProt P29466); test: ICE inhibition, Ki determination (fluorogenic substrate Ac-Tyr-Val-Ala-Asp-AMC); assay type: biochemical; conditions: 15 µM Ac-Tyr-Val-Ala-Asp-AMC, 0.5 nM enzyme, 30°C, reversible competitive model
T1 sequence (P29466 120-297 limits assumed): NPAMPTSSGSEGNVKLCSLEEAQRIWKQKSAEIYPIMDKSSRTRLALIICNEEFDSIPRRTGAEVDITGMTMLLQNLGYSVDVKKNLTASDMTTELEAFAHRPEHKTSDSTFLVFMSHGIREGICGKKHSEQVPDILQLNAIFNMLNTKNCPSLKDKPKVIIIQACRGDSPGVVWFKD
T1 sequence (P29466 317-404 limits assumed): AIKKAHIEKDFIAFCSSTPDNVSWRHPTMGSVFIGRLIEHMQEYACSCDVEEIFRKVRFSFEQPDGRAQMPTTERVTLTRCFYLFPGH
Method: Serial dilutions of each compound of the invention are prepared using an initial 8-fold dilution of a DMSO stock into HGE (100 mM HEPES, 20% glycerol v/v, 0.5 mM EDTA), followed by seven serial 2-fold dilutions into HGE + 12.5% DMSO. Ten microliters of diluted stocks or of vehicle (HGE + 12.5% DMSO) are placed in triplicate onto a 96-well microtiter plate. Enzyme is diluted into assay buffer (HGE, 5 mM DTT, 15 µM Ac-Tyr-Val-Ala-Asp-AMC; 0.5 nM final enzyme concentration, pre-warmed to 30°C), and this reaction mixture is added to the plate at 90 µL/well. Substrate hydrolysis is monitored for 300 seconds at 30°C using 385 and 460 nm excitation and emission filters, respectively. Triplicate curves are averaged, and slopes are evaluated by linear regression. To evaluate Ki, plots of percent inhibition vs inhibitor concentration are fit by non-linear regression to a reversible, competitive model: [formula] where the competition factor is (1 + [S]/KM) = 2.

ICE [2] = target: T1, ICE; test: ICE Colorimetric Dose-Response (IC50) Assay; assay type: biochemical; conditions: 60 minutes preincubation, 50 µM Ac-Tyr-Val-Ala-Asp-pNA, 25°C
Method: (§1) Diluted inhibitor stocks are prepared by two-fold serial dilution from a primary stock whose concentration is selected (based on screening results or on prior attempts at IC50 evaluation) to achieve approximately 95% inhibition in the most concentrated well. Aliquots of each dilution are transferred to a microtitre plate in triplicate.
(§2) ICE enzyme is diluted to approximately 24 nM in HGE buffer (100 mM Hepes pH 7.5, 0.5 mM EDTA, 20% glycerol, 0.1% Bovine Serum Albumin (BSA), and activated by adding dithiothreitol (DTT) to a final concentration of 5 mM. The activated enzyme is then aliquoted into wells containing inhibitor or vehicle, and the plate is preincubated for 60 minutes at ambient temperature. Substrate (Ac-Tyr-Val-Ala-Asp-pNA) is added to each well to a final concentration of 50 µM, and plates are placed in the microtitre plate-reader thermostated to 25°C. Beginning 5 minutes after addition of substrate, absorbance (405 nm) of wells is monitored for 1 hour, and activity is calculated as the mean rate of change in absorbance during this interval.

[3] = system: IL-1β production in human peripheral blood mononuclear cells (PBMCs); test: PBMC Cellular Assay - IC50 Determinations (LPS-stimulated IL-1β production, ELISA); assay type: cell-based; conditions: human PBMCs stimulated overnight with 10 ng/mL LPS, mature IL-1β by ELISA
Text: Further evidence that compounds of Formula I are inhibitors of ICE is provided by their ability to inhibit IL-1β production in human peripheral blood mononuclear cells (PBMCs) as described herein. PBMCs are isolated from heparinized blood by centrifugation over a ficoll cushion, then washed three times with phosphate-buffered saline. PBMCs are suspended in a medium containing RPMI 1640 with glutamine, penicillin, streptomycin, and 2% human AB serum, then plated at 10^6 cells per well in 96-well flat bottom plates. PBMCs are stimulated overnight with 10 ng/mL of lipopolysaccharide (LPS, E. coli strain 0111:B4; Calbiochem) in the presence or absence of a compound of Formula I. Medium is harvested, and the level of mature IL-1β was determined using an ELISA kit from R&D Systems. Cells were cultured for an additional 4 hours in the presence of 3-(4,5-dimethylthiazol-2-yl)-2,5-diphenyltetrazolium bromide (MTT) to determine viability.

Ich-2 enzyme = target: T2, Ich-2 enzyme (Homo sapiens, UniProt P49662); test: Ich-2 Colorimetric Dose-Response (IC50) Assay; assay type: biochemical; conditions: enzyme 64 nM, 60 µM Ac-Leu-Glu-Val-Asp-pNA; read-out: ICH2 IC50 (Caspase 4)
T2 sequence (P49662 81-270 limits assumed): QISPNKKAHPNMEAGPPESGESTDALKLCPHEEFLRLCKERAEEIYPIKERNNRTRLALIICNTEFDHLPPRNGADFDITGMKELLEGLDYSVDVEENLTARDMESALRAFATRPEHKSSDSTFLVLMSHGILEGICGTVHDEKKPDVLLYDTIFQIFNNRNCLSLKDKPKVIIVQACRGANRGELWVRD
T2 sequence (P49662 290-377 limits assumed): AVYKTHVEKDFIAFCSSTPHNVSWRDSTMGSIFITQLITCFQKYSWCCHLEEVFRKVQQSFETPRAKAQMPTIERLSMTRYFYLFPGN
Method: as §1, §2
Inhibition of Ich-2 enzyme is assayed as described above for ICE, except that enzyme is used at 64 nM, and 60 µM of the Ich-2-specific substrate Ac-Leu-Glu-Val-Asp-pNA is used instead of the ICE substrate Ac-Tyr-Val-Ala-Asp-pNA.

SMILES | Ki (ICE [1]) | IC50 (ICE [2]) | IC50 [3] | IC50 (Ich-2 enzyme)
CC(C)C(CC(=O)NCCn1cnc2ccccc21)C(=O)NC(C=O)CC(=O)O (stereo not shown) [Example 53, 3-{2-[(2-Benzoimidazol-1-yl-ethylcarbamoyl)-methyl]-3-methyl-butyrylamino}-4-oxo-butyric acid] | 20 nM | 73.7 nM | 8300 nM | 32500 nM
Cc1cccc2c(CCNC(=O)CC(C(=O)NC(CC(=O)O)C(=O)CNS(=O)(=O)CC34CCC(CC3=O)C4(C)C)C(C)C)c[nH]c12 (stereo not shown) [Example 19, 5-(7,7-Dimethyl-2-oxo-bicyclo[2.2.1]hept-1-ylmethanesulfonylamino)-3-(3-methyl-2-{(2-(7-methyl-1H-indol-3-yl)-ethylcarbamoyl]-methyl}-butyrylamino)-4-oxo-pentanoic acid] | 0.9 nM | 8.5 nM | 400 nM | 2380 nM
CC(C)C(CC(=O)NCCc1ccccc1)C(=O)NC(CC(=O)O)C(=O)CNS(=O)(=O)CC12CCC(CC1=O)C2(C)C (stereo not shown) [Example 3, 5-(7,7-Dimethyl-2-oxo-bicyclo[2.2.1]hept-1-ylmethanesulfonylamino)-3-[3-methyl-2-(phenethylcarbamoyl-methyl)-butyrylamino]-4-oxo-pentanoic acid] | 45 nM | 400 nM | 3000 nM | 4650 nM
CC(C)C(CC(=O)NO)C(=O)NC(CC(=O)O)C(=O)CNS(=O)(=O)CC12CCC(CC1=O)C2(C)C (stereo not shown) [Example 15, 5-(7,7-Dimethyl-2-oxo-bicyclo[2.2.1]hept-1-ylmethanesulfonylamino)-3-(2-hydroxycarbamoylmethyl-3-methyl-butyrylamino)-4-oxo-pentanoic acid] | 441 nM | 2050 nM | 17500 nM | 13100 nM
CCOC1OC(=O)CC1NC(=O)C(CC(=O)NCCc1c[nH]c2c(C)cccc12)C(C)C (stereo not shown) [Example 45, N^1-(2-Ethoxy-5-oxo-tetrahydro-furan-3-yl)-N^4-[2-(7-methyl-1H-indol-3-yl)-ethyl]-2-isopropyl-succinamide] | 37 nM | 750 nM | 2600 nM | 174000 nM
CC(C)C(CC(=O)NCCCc1ccccc1)C(=O)NC(CC(=O)O)C(=O)CNS(=O)(=O)CC12CCC(CC1)C2(C)C (stereo not shown) [Example 24, 5-(7,7-Dimethyl-bicyclo[2.2.1]hept-1-ylmethanesulfonylamino)-3-{3-methyl-2-[(3-phenyl-propylcarbamoyl)-methyl]-butyrylamino}-4-oxo-pentanoic acid] | 20.7 nM | 360 nM | 1600 nM | 8660 nM
CC(C)[C@H](CC(=O)NCCCc1ccccc1)C(=O)N[C@H](C=O)CC(=O)O [Example 7, (S,S)-3-{3-Methyl-2-[(3-phenyl-propylcarbamoyl)-methyl]-butyrylamino}-4-oxo-butyric acid] | 115 nM | 444 nM | 6000 nM | 20700 nM
CCOC1OC(=O)CC1NC(=O)C(CC(=O)NCCc1c[nH]c2ccccc12)C(C)C (stereo not shown) [Example 36, N^1-(2-Ethoxy-5-oxo-tetrahydro-furan-3-yl)-N^4-[2-(1H-indol-3-yl)-ethyl]-2-isopropyl-succinamide] | 630 nM | 599 nM | 1300 nM | 101000 nM
CC(C)C(CC(=O)NCCCc1ccc2ccccc2n1)C(=O)NC(CC(=O)O)C(=O)CNS(=O)(=O)CC12CCC(CC1=O)C2(C)C (stereo not shown) [Example 27, 5-(7,7-Dimethyl-2-oxo-bicyclo[2.2.1]hept-1-ylmethanesulfonylamino)-3-{3-methyl-2-[(3-quinolin-2-yl-propylcarbamoyl)-methyl]-butyrylamino}-4-oxo-pentanoic acid] | 17.5 nM | 147 nM | 1000 nM | 9930 nM
CC(C)C(CC(=O)NCCc1cn(C)c2ccccc12)C(=O)NC(CC(=O)O)C(=O)CNS(=O)(=O)CC12CCC(CC1=O)C2(C)C (stereo not shown) [Example 31, 5-(7,7-Dimethyl-2-oxo-bicyclo[2.2.1]hept-1-ylmethanesulfonylamino)-3-(3-methyl-2-{[2-(1-methyl-1H-indol-3-yl)-ethylcarbamoyl]-methyl}-butyrylamino)-4-oxo-pentanoic acid] | 0.4 nM | 5.9 nM | 240 nM | 1240 nM
CC(C)C(CC(=O)NCCn1ncc2ccccc21)C(=O)NC(C=O)CC(=O)O (stereo not shown) [Example 59, 3-{2-[(2-Indazol-1-yl-ethylcarbamoyl)-methyl]-3-methyl-butyrylamino}-4-oxo-butyric acid] | 33.2 nM | 56.6 nM | 3750 nM | 10400 nM
Cc1cc2ncn(CCN(C)C(=O)CC(C(=O)NC(C=O)CC(=O)O)C(C)C)c2cc1C (stereo not shown) [Example 60, 3-[2-({[2-(5,6-Dimethyl-benzoimidazol-1-yl)-ethyl]-methylcarbamoyl}-methyl)-3-methyl-butyrylamino]4-oxo-butyric acid] | 9.2 nM | 468 nM | 5000 nM | 12700 nM
CC(C)C(CC(=O)NCCc1ccccc1)C(=O)NC(CC(=O)O)C(=O)CNS(=O)(=O)CC12CCC(CC1)C2(C)C (stereo not shown) [Example 6, 5-(7,7-Dimethyl-bicyclo[2.2.1]hept-1-ylmethanesulfonylamino)-3-[3-methyl-2-(phenethylcarbamoyl-methyl)-butyrylamino]-4-oxo-pentanoic acid] | 142 nM | 1060 nM | 3250 nM | 9590 nM
CC(C)C(CC(=O)NCCn1cnc2ccccc21)C(=O)NC(CC(=O)O)C(=O)CNS(=O)(=O)CC12CCC(CC1=O)C2(C)C (stereo not shown) [Example 30, 3-{2-[(2-Benzoimidazol-1-yl-ethylcarbamoyl)-methyl]-3-methyl-butyrylamino}-5-(7,7-dimethyl-2-oxo-bicyclo[2.2.1]hept-1-ylmethanesulfonylamino)-4-oxo-pentanoic acid] | 1.1 nM | 5.2 nM | 410 nM | 3140 nM
CC(C)[C@H](CC(=O)NCCc1cn(C)c2ccccc12)C(=O)NC(CC(=O)O)C(=O)CNS(=O)(=O)CC12CCC(CC1)C2(C)C (stereo partly shown) [Example 25] | 5.8 nM | 48.3 nM | 1100 nM | 3540 nM
CC(C)C(CC(=O)NCCc1cn(C)c2ccc(F)cc12)C(=O)NC(C=O)CC(=O)O (stereo not shown) [Example 55, 3-(2-{[2-(5-Fluoro-1-methyl-1H-indol-3-yl)-ethylcarbamoyl]-methyl}-3-methyl-butyrylamino)-4-oxo-butyric acid] | 7.9 nM | 37 nM | 5300 nM | 11500 nM
